In this assay the target is soluble guanylate cyclase (sGC) (Homo sapiens (Human), UniProt Q02108+Q02153). In words: sGC-HEK-cGMP assay with SNP incubation, LC/MS detection (Example 2A). The format is cell-based. As to conditions: HEK293 cells, 10 μM SNP, LC/MS detection; for Emax: 100% = BAY 41-2272 at 10 μM, read-out: HEK assay Emax - unconstrained (%); for EC50: top of curve not fitted to 100%, read-out: HEK assay EC50 - unconstrained. As to the method:
Human embryonic kidney cells (HEK293), endogenously expressing soluble guanylate cyclase (sGC), were used to evaluate the activity of test compounds. Compounds stimulating the sGC receptor should cause an increase in the intracellular concentration of cGMP. HEK 293 cells were seeded in Dulbecco's Modification of Eagle's Medium supplemented with fetal bovine serum (10% final) and L-glutamine (2 mM final) in a 200 L volume at a density of 1×10^5 cells/well in a poly-D-lysine coated 96 well flat bottom plate and grown overnight at 37° C. Medium was aspirated and cells were washed with 1× Hank's Buffered Saline Salt Solution (200 μL). Cells were then incubated for 15 minutes at 37° C. with 200 μL of a 0.5 mM 3-isobutyl-1-methylxanthine (IBMX) solution. Test article and sodium nitroprusside solutions (x μM concentration for test article solution and 10 μM concentration for SNP solution; wherein x is one of the following concentrations: 30 μM, 10 μM, 3 μM, 1 μM, 0.3 μM, 0.1 μM, 0.03 μM, 0.01 μM, 0.003 μM, 0.001 μM, 0.0003 μM or 0.0001 μM) were then added to the assay mixture (2 μL each) and the resulting mixture incubated at 37° C. for 10 minutes. After the 10 minute incubation, the assay mixture was aspirated and 0.1M HCl (200 μL) was added to the cells. The plate was incubated at 4° C. for 30 minutes in the 0.1M HCl to stop the reaction and lyse the cells. The plates were then centrifuged at 1,200 g for 5 minutes at room temperature. Supernatants were collected and transferred to a new flat bottom 96 well plate for analysis by HPLC-MS. Vehicle controls were carried out using DMSO (1%) solutions. A known sGC stimulator, BAY 41-2272, was used as the positive control. Samples were diluted with an equal volume of 1 M Ammonium Acetate (pH 7) to neutralize samples for better chromatography. A 2× cGMP standard solution was prepared in 0.1 M HCl and then diluted with an equal volume of 1 M Ammonium Acetate, with the following final concentrations in nM: 1024, 512, 256, 128, 64, 32, 16, 8, 4, 2, 1. cGMP concentrations in the test plates were determined from each sample using the LC/MS conditions shown in Table 2 below and the calculated cGMP standard curve. EC50 values were calculated from concentration-response curves generated with GraphPad Prism Software. Data were normalized to a high control using the following equation: 100*(Sample−Low Control)/(High Control−Low Control), where the low control is the average of 6 samples treated with 1% DMSO, and the high control is the average of 8-12 samples treated with 10 uM BAY 41-2272. Data were fit using a non-linear regression, sigmoidal dose response, 3 parameter fits.

Broadly, the Emax is the greatest response seen or fitted, relative to the assay's reference. As usually defined, the EC50 is the concentration at which the effect is half-maximal.

Sequence of soluble guanylate cyclase (sGC) (Q02153 whole entry): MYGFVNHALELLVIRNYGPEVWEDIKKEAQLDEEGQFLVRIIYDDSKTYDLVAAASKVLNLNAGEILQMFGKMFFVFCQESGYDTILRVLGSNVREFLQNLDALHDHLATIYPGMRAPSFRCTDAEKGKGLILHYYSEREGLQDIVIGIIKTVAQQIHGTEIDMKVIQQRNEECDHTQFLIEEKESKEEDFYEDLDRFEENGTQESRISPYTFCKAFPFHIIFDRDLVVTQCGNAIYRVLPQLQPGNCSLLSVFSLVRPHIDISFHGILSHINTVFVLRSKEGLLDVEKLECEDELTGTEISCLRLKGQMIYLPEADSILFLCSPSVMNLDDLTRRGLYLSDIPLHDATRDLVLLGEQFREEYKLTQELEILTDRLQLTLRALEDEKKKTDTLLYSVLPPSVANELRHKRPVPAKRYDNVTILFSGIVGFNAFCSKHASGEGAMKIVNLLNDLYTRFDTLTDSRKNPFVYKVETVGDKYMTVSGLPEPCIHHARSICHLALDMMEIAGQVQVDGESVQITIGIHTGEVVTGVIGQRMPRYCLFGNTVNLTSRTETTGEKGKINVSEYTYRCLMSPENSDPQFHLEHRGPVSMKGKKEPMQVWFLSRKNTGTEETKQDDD
Sequence of soluble guanylate cyclase (sGC) (Q02108 whole entry): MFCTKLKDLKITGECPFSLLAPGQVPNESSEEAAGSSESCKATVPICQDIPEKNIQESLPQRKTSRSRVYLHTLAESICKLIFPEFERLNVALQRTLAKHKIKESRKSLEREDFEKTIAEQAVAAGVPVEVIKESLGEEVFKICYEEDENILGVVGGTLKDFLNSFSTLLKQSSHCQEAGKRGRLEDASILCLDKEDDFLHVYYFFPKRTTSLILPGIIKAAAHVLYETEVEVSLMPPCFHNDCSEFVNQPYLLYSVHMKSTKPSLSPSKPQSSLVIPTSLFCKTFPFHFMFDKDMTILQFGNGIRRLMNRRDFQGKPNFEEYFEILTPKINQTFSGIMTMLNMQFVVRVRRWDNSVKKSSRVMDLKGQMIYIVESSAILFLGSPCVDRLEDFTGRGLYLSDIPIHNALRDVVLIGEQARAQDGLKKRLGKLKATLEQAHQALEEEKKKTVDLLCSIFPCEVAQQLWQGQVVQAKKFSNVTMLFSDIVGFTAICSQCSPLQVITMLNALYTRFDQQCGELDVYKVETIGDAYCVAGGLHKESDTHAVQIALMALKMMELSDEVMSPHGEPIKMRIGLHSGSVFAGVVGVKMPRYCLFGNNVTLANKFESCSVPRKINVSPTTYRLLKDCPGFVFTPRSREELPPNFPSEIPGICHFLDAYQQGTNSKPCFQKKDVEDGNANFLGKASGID

As for `CN(C)CCNc1nc(-c2cc(-c3ccon3)n(Cc3ccccc3F)n2)ncc1F` [Compound I-7], the Emax lay within 40 to 60% and the EC50 was 1000 to 5000 nM.

`CN(C)c1nc(-c2cc(-c3ccon3)n(Cc3ccccc3F)n2)ncc1F` [Compound I-8]: the Emax was in the range of 60 to 80% and the EC50 is 100 to 500 nM.

Consider `Fc1ccccc1Cn1nc(-c2ncc(F)c(NC3CCCCC3)n2)cc1-c1ccon1` [Compound I-9], for which the Emax was 80 to 100% and the EC50 fell in the range of 100 to 500 nM.

Regarding `CC(C)(C)OC(=O)N1CCC(Nc2nc(-c3cc(-c4ccon4)n(Cc4ccccc4F)n3)ncc2F)CC1` [Compound I-12], the Emax fell in the range of 100 to 120% and the EC50 was 1000 to 5000 nM.

Take `OC[C@@H]1CCCN1c1nc(-c2cc(-c3ccon3)n(Cc3ccccc3F)n2)ncc1F` [Compound I-13]: the Emax lay in the range of 60 to 80% and the EC50 was 100 to 500 nM.

Take `COC1CCN(c2nc(-c3cc(-c4ccon4)n(Cc4ccccc4F)n3)ncc2F)C1` (stereo not shown) [Compound I-17]: the Emax fell in the range of 60 to 80% and the EC50 is 100 to 500 nM.

For `OC1CCCN(c2nc(-c3cc(-c4ccon4)n(Cc4ccccc4F)n3)ncc2F)C1` (stereo not shown) [Compound I-18], the Emax is 60 to 80%.

On to `OC1CCN(c2nc(-c3cc(-c4ccon4)n(Cc4ccccc4F)n3)ncc2F)C1` (stereo not shown) [Compound I-20], for which the Emax is 60 to 80% and the EC50 is 100 to 500 nM.

On to `CC(C)(C)OC(=O)NC1CN(c2nc(-c3cc(-c4ccon4)n(Cc4ccccc4F)n3)ncc2F)C1` [Compound I-21, tert-butyl (1-(5-fluoro-2-(1-(2-fluorobenzyl)-5-(isoxazol-3-yl)-1H-pyrazol-3-yl)pyrimidin-4-yl)azetidin-3-yl)carbamate], for which the Emax lay in the range of 40 to 60% and the EC50 was in the range of 100 to 500 nM.

With `COC1CCN(c2nc(-c3cc(-c4ccon4)n(Cc4ccccc4F)n3)ncc2F)CC1` [Compound I-22], the Emax fell in the range of 60 to 80% and the EC50 is 100 to 500 nM.

As for `CC(C)(C)OC(=O)NC1CCCN(c2nc(-c3cc(-c4ccon4)n(Cc4ccccc4F)n3)ncc2F)C1` (stereo not shown) [Compound I-25], the Emax was in the range of 40 to 60% and the EC50 lay within 500 to 1000 nM.

With `CC(C)(C)OC(=O)N1CC(Nc2nc(-c3cc(-c4ccon4)n(Cc4ccccc4F)n3)ncc2F)C1` [Compound I-26], the Emax fell in the range of 60 to 80% and the EC50 was in the range of 100 to 500 nM.

With `CC(C)(C)OC(=O)N1CCCC(Nc2nc(-c3cc(-c4ccon4)n(Cc4ccccc4F)n3)ncc2F)C1` (stereo not shown) [Compound I-27], the Emax fell in the range of 60 to 80% and the EC50 fell in the range of 500 to 1000 nM.

Consider `Fc1ccccc1Cn1nc(-c2ncc(Cl)c(N3CCOCC3)n2)cc1-c1ccon1` [Compound I-28], for which the Emax is 60 to 80% and the EC50 lay in the range of 1000 to 5000 nM.

In the case of `O=C1CC2(CCN(c3nc(-c4cc(-c5ccon5)n(Cc5ccccc5F)n4)ncc3F)CC2)CN1` [Compound I-30], the Emax lay in the range of 80 to 100% and the EC50 is 100 to 500 nM.

For `O=C(CNc1nc(-c2cc(-c3ccon3)n(Cc3ccccc3F)n2)ncc1F)N1CCOCC1` [Compound I-31], the Emax was 60 to 80% and the EC50 fell in the range of 500 to 1000 nM.

As for `Fc1ccccc1Cn1nc(-c2ncc(F)c(N3CC4(COC4)C3)n2)cc1-c1ccon1` [Compound I-32], the Emax lay in the range of 60 to 80% and the EC50 was 100 to 500 nM.

As for `CC1COCCN1c1nc(-c2cc(-c3ccon3)n(Cc3ccccc3F)n2)ncc1F` (stereo not shown) [Compound I-33], the Emax was in the range of 60 to 80% and the 50% effective concentration (EC50) was in the range of 100 to 500 nM.

Take `COC(=O)C1CCCN1c1nc(-c2cc(-c3ccon3)n(Cc3ccccc3F)n2)ncc1F` (stereo not shown) [Compound I-34]: the Emax lay in the range of 40 to 60% and the EC50 lay within 500 to 1000 nM.

On to `NC1CCCN(c2nc(-c3cc(-c4ccon4)n(Cc4ccccc4F)n3)ncc2F)C1` (stereo not shown) [Compound I-37], for which the Emax was 60 to 80% and the EC50 was in the range of 1000 to 5000 nM.

As for `Fc1ccccc1Cn1nc(-c2ncc(F)c(NC3CNC3)n2)cc1-c1ccon1` [Compound I-38], the Emax was in the range of 60 to 80% and the EC50 was 5000 to 10000 nM.

Consider `NC1CN(c2nc(-c3cc(-c4ccon4)n(Cc4ccccc4F)n3)ncc2F)C1` [Compound I-40, 1-(5-fluoro-2-(1-(2-fluorobenzyl)-5-(isoxazol-3-yl)-1H-pyrazol-3-yl)pyrimidin-4-yl)azetidin-3-amine], for which the Emax was in the range of 60 to 80% and the EC50 lay within 1000 to 5000 nM.

As for `O=C(O)C1CCCN1c1nc(-c2cc(-c3ccon3)n(Cc3ccccc3F)n2)ncc1F` (stereo not shown) [Compound I-41], the Emax lay in the range of 60 to 80%.

As to `Fc1ccccc1Cn1nc(-c2ncc(F)c(N3CCC4(CC3)COC4)n2)cc1-c1ccon1` [Compound I-42], the Emax fell in the range of 80 to 100% and the concentration giving a half-maximal response (EC50) lay within 100 to 500 nM.

With `Fc1ccccc1Cn1nc(-c2ncc(F)c(N3CCC4(CCOCC4)C3)n2)cc1-c1ccon1` [Compound I-43], the Emax is 60 to 80% and the EC50 fell in the range of 1 to 100 nM.

Turning to `CC(C)(C)OC(=O)N1CCC2(CCN(c3nc(-c4cc(-c5ccon5)n(Cc5ccccc5F)n4)ncc3F)C2)C1` (stereo not shown) [Compound I-45], the Emax is 40 to 60% and the EC50 was 1000 to 5000 nM.

As for `NC1CCN(c2nc(-c3cc(-c4ccon4)n(Cc4ccccc4F)n3)ncc2F)C1` (stereo not shown) [Compound I-46], the Emax is 60 to 80% and the EC50 lay within 1000 to 5000 nM.

Take `Fc1ccccc1Cn1nc(-c2ncc(F)c(N3CCCC4(COC4)C3)n2)cc1-c1ccon1` [Compound I-47]: the Emax lay within 40 to 60% and the EC50 lay within 100 to 500 nM.

On to `COC(=O)C1CCCCN1c1nc(-c2cc(-c3ccon3)n(Cc3ccccc3F)n2)ncc1F` (stereo not shown) [Compound I-48], for which the Emax is 60 to 80% and the EC50 fell in the range of 1000 to 5000 nM.

Regarding `COC(=O)N(C(=O)OC)c1nc(-c2cc(-c3ccon3)n(Cc3ccccc3F)n2)ncc1F` [Compound I-52], the Emax was 60 to 80% and the EC50 lay in the range of 1000 to 5000 nM.

Regarding `Fc1ccccc1Cn1nc(-c2ncc(F)c(N3CCCC(F)C3)n2)cc1-c1ccon1` (stereo not shown) [Compound I-56], the Emax was 80 to 100% and the EC50 was in the range of 100 to 500 nM.

Regarding `CCN(CC)c1nc(-c2cc(-c3ccon3)n(Cc3ccccc3F)n2)ncc1F` [Compound I-60], the Emax is 100 to 120% and the EC50 was 500 to 1000 nM.

Consider `Fc1ccccc1Cn1nc(-c2ncc(F)c(N3CC(F)(F)C3)n2)cc1-c1ccon1` [Compound I-61], for which the Emax was in the range of 80 to 100% and the EC50 lay within 500 to 1000 nM.

Turning to `Fc1ccccc1Cn1nc(-c2ncc(F)c(N3CCC(F)(F)C3)n2)cc1-c1ccon1` [Compound I-63], the Emax fell in the range of 60 to 80% and the EC50 was in the range of 100 to 500 nM.

Turning to `CC1(Nc2nc(-c3cc(-c4ccon4)n(Cc4ccccc4F)n3)ncc2F)CCOCC1` [Compound I-64], the Emax lay within 80 to 100% and the EC50 is 1 to 100 nM.

Turning to `CC(C)(C)Nc1nc(-c2cc(-c3ccon3)n(Cc3ccccc3F)n2)ncc1F` [Compound I-65], the Emax fell in the range of 60 to 80% and the EC50 was 500 to 1000 nM.

For `NC(=O)C1CCCN(c2nc(-c3cc(-c4ccon4)n(Cc4ccccc4F)n3)ncc2F)C1` (stereo not shown) [Compound I-66], the Emax lay in the range of 60 to 80% and the EC50 lay in the range of 100 to 500 nM.

`O=C(O)[C@H](CO)Nc1nc(-c2cc(-c3ccon3)n(Cc3ccccc3F)n2)ncc1F` [Compound I-68]: the Emax is 60 to 80% and the EC50 is 5000 to 10000 nM.

As for `CCNC(=O)NC1CCCN(c2nc(-c3cc(-c4ccon4)n(Cc4ccccc4F)n3)ncc2F)C1` (stereo not shown) [Compound I-70], the Emax fell in the range of 80 to 100% and the EC50 is 100 to 500 nM.

Values taken from US10183021B2, “sGC stimulators” (Ironwood Pharmaceuticals, Inc., priority 2013, dated 2019).
